Results taken from patent US11155542B2, “Antimicrobial compounds, their use for the treatment of mammalian infections and a new metabolic mechanism” (priority 2016, dated 2021).
≈ marks a conversion by molar mass, not a printed value.

These compounds were tested on Mtb (PDR) 12700 (assay: Resazurin microtiter assay (REMA), MIC Mtb (PDR) 12700). Conditions: Mycobacterium tuberculosis; PDR = poly drug resistant (isoniazid and streptomycin).
Type: cell-based
For `C[C@H]1COC2(CCN(c3nc(=O)c4cc(C(F)(F)F)cc([N+](=O)[O-])c4s3)CC2)O1` [BTZ043, (S)-2-(2-methyl-1,4-dioxa-8-azaspiro[4.5]decan-8-yl)-8-nitro-6-(trifluoro-methyl)-4H-1,3-benzothiazin-4-one, reference compound], the MIC was 2 ng/mL (≈ 4.64 nM).
`Cc1c(C(F)(F)F)cc([N+](=O)[O-])c2sc(N3CCC4(CC3)OC[C@H](C)O4)nc(=O)c12` [Example 9b, (S)-5-Methyl-2-(2-methyl-1,4-dioxa-8-azaspiro[4.5]decan-8-yl)-8-nitro-6-(trifluoromethyl)-4H-1,3-benzothiazin-4-one] showed an MIC of 4 ng/mL (≈ 8.98 nM).
For `Cc1c(C(F)(F)F)cc([N+](=O)[O-])c2sc(N3CCN(CC4CCCCC4)CC3)nc(=O)c12` [Example 16, 2-(4-(Cyclohexylmethyl)piperazin-1-yl)-5-methyl-8-nitro-6-(trifluoromethyl)-4H-1,3-benzothiazin-4-one], the MIC was at most 0.063 ng/mL.
Work on `Cc1c(C(F)(F)F)cc2c(=O)nc(N3CCC4(CC3)OC[C@H](C)O4)sc2c1[N+](=O)[O-]` [Example 9a, (S)-7-Methyl-2-(2-methyl-1,4-dioxa-8-azaspiro[4.5]decan-8-yl)-8-nitro-6-(trifluoromethyl)-4H-1,3-benzothiazin-4-one] yielded an MIC of 250 ng/mL (≈ 561 nM).
